What was measured:
Assay type in all cases: functional
Enterobacter cloacae = assay: Antimicrobial activity against multidrug-resistant Enterobacter cloacae E705 bearing qnrB10 gene with aac(6)-IId-aadA1a integron in presence of IPTG
Klebsiella pneumoniae = assay: Antimicrobial activity against multidrug-resistant Klebsiella pneumoniae M7943 bearing qnrB10 gene with aac(6)-Ib-cr-blaOXA-30 catB3-arr-3 integron in presence of IPTG
Escherichia coli [1] = assay: Antimicrobial activity against Escherichia coli DH10B in presence of IPTG; conditions: K-12 substr. DH10B
Escherichia coli [2] = assay: Antimicrobial activity against Escherichia coli J53-AzR in presence of IPTG
Escherichia coli [3] = assay: Antimicrobial activity against Escherichia coli DH10B expressing pCR2.1 in presence of IPTG; conditions: K-12 substr. DH10B
Escherichia coli [4] = assay: Antimicrobial activity against multidrug-resistant Escherichia coli M7943-TC2 bearing qnrB10 gene with aac(6)-Ib-cr-blaOXA-30 catB3-arr-3 integron in presence of IPTG
Escherichia coli [5] = assay: Antimicrobial activity against Escherichia coli DH10B expressing pCRQB10 in presence of IPTG; conditions: K-12 substr. DH10B

SMILES: NCC[C@H](O)C(=O)N[C@@H]1C[C@H](N)[C@@H](O[C@H]2O[C@H](CN)[C@@H](O)[C@H](O)[C@H]2O)[C@H](O)[C@H]1O[C@H]1O[C@H](CO)[C@@H](O)[C@H](N)[C@H]1O [AMIKACIN]
- MIC (Enterobacter cloacae): 8 µg/mL
- MIC (Klebsiella pneumoniae): 16 µg/mL
- MIC (Escherichia coli [1]): 1 µg/mL
- MIC (Escherichia coli [2]): 0.5 µg/mL
- MIC (Escherichia coli [3]): 2 µg/mL
- MIC (Escherichia coli [4]): 4 µg/mL
- MIC (Escherichia coli [5]): 2 µg/mL

SMILES: O=C(O)c1cn(C2CC2)c2cc(N3CCNCC3)c(F)cc2c1=O [CIPROFLOXACIN]
- MIC (Klebsiella pneumoniae): 32 µg/mL

SMILES: COc1c(N2CCNC(C)C2)c(F)cc2c(=O)c(C(=O)O)cn(C3CC3)c12 (stereo unspecified) [GATIFLOXACIN]
- MIC (Enterobacter cloacae): 32 µg/mL
- MIC (Klebsiella pneumoniae): 4 µg/mL
- MIC (Escherichia coli [1]): 0.004 µg/mL
- MIC (Escherichia coli [2]): 0.03 µg/mL
- MIC (Escherichia coli [3]): 0.004 µg/mL
- MIC (Escherichia coli [4]): 0.5 µg/mL
- MIC (Escherichia coli [5]): 0.06 µg/mL

SMILES: NC[C@H]1O[C@H](O[C@H]2[C@H](O)[C@@H](O[C@H]3O[C@H](CO)[C@@H](O)[C@H](N)[C@H]3O)[C@H](N)C[C@@H]2N)[C@H](O)[C@@H](O)[C@@H]1O [KANAMYCIN]
- MIC (Enterobacter cloacae): ≥ 256 µg/mL
- MIC (Klebsiella pneumoniae): 128 µg/mL
- MIC (Escherichia coli [1]): 1 µg/mL
- MIC (Escherichia coli [2]): 2 µg/mL
- MIC (Escherichia coli [3]): ≥ 256 µg/mL
- MIC (Escherichia coli [4]): 64 µg/mL
- MIC (Escherichia coli [5]): ≥ 256 µg/mL

SMILES: C[C@H]1COc2c(N3CCN(C)CC3)c(F)cc3c(=O)c(C(=O)O)cn1c23.C[C@H]1COc2c(N3CCN(C)CC3)c(F)cc3c(=O)c(C(=O)O)cn1c23.O [LEVOFLOXACIN]
- MIC (Enterobacter cloacae): ≥ 64 µg/mL
- MIC (Klebsiella pneumoniae): 4 µg/mL
- MIC (Escherichia coli [1]): 0.004 µg/mL
- MIC (Escherichia coli [3]): 0.004 µg/mL

SMILES: COc1c(N2C[C@@H]3CCCN[C@@H]3C2)c(F)cc2c(=O)c(C(=O)O)cn(C3CC3)c12 [MOXIFLOXACIN]
- MIC (Klebsiella pneumoniae): 8 µg/mL
- MIC (Escherichia coli [1]): 0.004 µg/mL
- MIC (Escherichia coli [3]): 0.004 µg/mL
- MIC (Escherichia coli [4]): 1 µg/mL
- MIC (Escherichia coli [5]): 0.125 µg/mL

SMILES: CCn1cc(C(=O)O)c(=O)c2ccc(C)nc21 [NALIDIXIC ACID]
- MIC (Enterobacter cloacae): ≥ 256 µg/mL
- MIC (Klebsiella pneumoniae): 128 µg/mL
- MIC (Escherichia coli [1]): 2 µg/mL
- MIC (Escherichia coli [2]): 4 µg/mL
- MIC (Escherichia coli [3]): 2 µg/mL
- MIC (Escherichia coli [4]): 16 µg/mL
- MIC (Escherichia coli [5]): 8 µg/mL

SMILES: CCn1cc(C(=O)O)c(=O)c2cc(F)c(N3CCNCC3)cc21 [NORFLOXACIN]
- MIC (Enterobacter cloacae): ≥ 64 µg/mL
- MIC (Klebsiella pneumoniae): 32 µg/mL
- MIC (Escherichia coli [1]): 0.008 µg/mL
- MIC (Escherichia coli [2]): 0.03 µg/mL
- MIC (Escherichia coli [3]): 0.008 µg/mL
- MIC (Escherichia coli [4]): 2 µg/mL
- MIC (Escherichia coli [5]): 0.125 µg/mL

SMILES: CC1COc2c(N3CCN(C)CC3)c(F)cc3c(=O)c(C(=O)O)cn1c23 (stereo unspecified) [OFLOXACIN]
- MIC (Enterobacter cloacae): ≥ 64 µg/mL
- MIC (Klebsiella pneumoniae): 8 µg/mL
- MIC (Escherichia coli [1]): 0.004 µg/mL
- MIC (Escherichia coli [3]): 0.004 µg/mL

SMILES: NC[C@H]1O[C@H](O[C@H]2[C@H](O)[C@@H](O[C@H]3O[C@H](CO)[C@@H](O)[C@H](N)[C@H]3O)[C@H](N)C[C@@H]2N)[C@H](N)C[C@@H]1O [TOBRAMYCIN]
- MIC (Enterobacter cloacae): 32 µg/mL
- MIC (Klebsiella pneumoniae): 16 µg/mL
- MIC (Escherichia coli [1]): 0.25 µg/mL
- MIC (Escherichia coli [2]): 0.25 µg/mL
- MIC (Escherichia coli [3]): 0.25 µg/mL
- MIC (Escherichia coli [4]): 16 µg/mL
- MIC (Escherichia coli [5]): 0.25 µg/mL

— ChEMBL document CHEMBL1151447, “Complex class 1 integrons with diverse variable regions, including aac(6')-Ib-cr, and a novel allele, qnrB10, associated with ISCR1 in clinical enterobacterial isolates from Argentina” (2007)
